Test system: human skin
Experiment: Parasthesia irritation screening: one-gram drop placed on human skin, Parasthesia Irritation Rating (PIR)
Assay type: in vivo
Design: key: 0 = no discomfort, 4 = slight, 8 = noticeable, 12 = severe
Procedure: 1. Different ratios of active ingredient to IDPP are prepared for evaluation.
2. A one-gram drop of the ratio is placed on human skin. Only one drop is evaluated within a 24-hour period.
3. Irritation or sensitivity values are assigned according to the following scale (“Parasthesia Irritation Rating” or “PIR”): • 12=Severe • 8 =Noticeable discomfort • 4 =Slight discomfort • 0=No discomfort
4. If irritation is severe or noticeable at any time within a 24-hour period, the skin is washed and 5% lidocaine solution is applied to lessen discomfort.

[1] = ratio active agent:IDPP 0.67:1.00, within 24-hour period

| Structure (SMILES) | Parasthesia Irritation Rating (active agent 1.00 without IDPP (—), within 24-hour period) | Parasthesia Irritation Rating [1] | Parasthesia Irritation Rating (ratio active agent:IDPP 1.00:1.00, within 24-hour period) | Parasthesia Irritation Rating (ratio active agent:IDPP 1.50:1.00, within 24-hour period) | Parasthesia Irritation Rating (ratio active agent:IDPP 0.18:1.00, within 24-hour period) | Parasthesia Irritation Rating (ratio active agent:IDPP 0.21:1.00, within 24-hour period) | Parasthesia Irritation Rating (ratio active agent:IDPP 0.25:1.00, within 24-hour period) | Parasthesia Irritation Rating (ratio active agent:IDPP 0.33:1.00, within 24-hour period) | Parasthesia Irritation Rating (ratio active agent:IDPP 0.43:1.00, within 24-hour period) |
| --- | --- | --- | --- | --- | --- | --- | --- | --- | --- |
| CC(C)=CC1C(C(=O)OC(C#N)c2cccc(Oc3ccccc3)c2)C1(C)C (stereo not shown) [Cyphenothrin] | 12.00 | 0.00 | 0.00 | 4.00 |  |  |  |  |  |
| CC1(C)C(C=C(Cl)Cl)C1C(=O)OC(C#N)c1cccc(Oc2ccccc2)c1 (stereo not shown) [Cypermethrin] |  | 12.00 |  |  | 0.00 | 0.00 | 4.00 | 12.00 | 12.00 |

Reference: patent publication US20060264402A1, “Pest control formulation” (Redline, Inc., priority 2003, published 2006)
